Measured values as given in US11299500B2, “Crystalline form of lorlatinib free base hydrate” (Pfizer Inc., priority 2017, dated 2022).

Assays:
[1] = test system: anaplastic lymphoma kinase (ALK); conditions: wild type and resistance mutant forms, including ALK G1202R; cited from earlier work
[2] = test system: c-ros oncogene 1 (ROS1) receptor tyrosine kinase; conditions: wild type and resistance mutant forms, including ROS1 G2032R; cited from earlier work
[3] = test system: ALK-positive NSCLC xenograft models and intracranial ALK-positive tumor models; conditions: cited from earlier work
[4] = Water sorption/desorption study by DVS; assay type: physicochemical
Description: A DVS method was employed to study the sorption/desorption behavior of Form 24.
Method: The method involved a standard sorption run from 0% RH to 90% RH, employing humidity rise at steps of 10% RH at 20° C., followed by a de-sorption run down to 0% RH and a second sorption/desorption cycle from 0% RH to 90% RH in 10% step change of RH at 20° C.

[5] = Physical stability in aqueous-based formulations; assay type: physicochemical; conditions: relative to anhydrous free base (Form 7) and acetic acid solvate (Form 3); e.g., topical formulations
[6] = targeted relative humidity 0% RH, 20° C.
[7] = targeted relative humidity 10% RH, 20° C.
[8] = targeted relative humidity 20% RH, 20° C.
[9] = targeted relative humidity 30% RH, 20° C.
[10] = targeted relative humidity 40% RH, 20° C.
[11] = targeted relative humidity 50% RH, 20° C.
[12] = targeted relative humidity 60% RH, 20° C.
[13] = targeted relative humidity 70% RH, 20° C.
[14] = targeted relative humidity 80% RH, 20° C.
[15] = targeted relative humidity 90% RH, 20° C.

C[C@H]1Oc2cc(cnc2N)-c2c(nn(C)c2C#N)CN(C)C(=O)c2ccc(F)cc21 [Lorlatinib, (10R)-7-amino-12-fluoro-2,10,16-trimethyl-15-oxo-10,15,16,17-tetra-hydro-2H-8,4-(metheno)pyrazolo[4,3-h][2,5,11]benzoxadiazacyclotetradecine-3-carbonitrile]
potency against ALK [1]: nanomolar potency
potency against ROS1 [2]: nanomolar potency
antitumor activity [3]: demonstrated antitumor activity

C[C@H]1Oc2cc(cnc2N)-c2c(nn(C)c2C#N)CN(C)C(=O)c2ccc(F)cc21 [Form 24, (10R)-7-amino-12-fluoro-2,10,16-trimethyl-15-oxo-10,15,16,17-tetrahydro-2H-8,4-(metheno)pyrazolo[4,3-h][2,5,11]benzoxadiazacyclotetra-decine-3-carbonitrile (lorlatinib) Free Base Hydrate (Form 24)]
hysteresis of de-sorption isotherms with respect to sorption isotherm ([4]; 0-90% RH, 20° C.): very little hysteresis
% Water First Cycle [4, 6]: 0.00%
% Water Second Cycle [4, 6]: 0.00%
% Water First Cycle [4, 7]: 0.06%
% Water Second Cycle [4, 7]: 0.06%
% Water First Cycle [4, 8]: 0.13%
% Water Second Cycle [4, 8]: 0.13%
% Water First Cycle [4, 9]: 0.19%
% Water Second Cycle [4, 9]: 0.20%
% Water First Cycle [4, 10]: 0.27%
% Water Second Cycle [4, 10]: 0.27%
% Water First Cycle [4, 11]: 0.34%
% Water Second Cycle [4, 11]: 0.35%
% Water First Cycle [4, 12]: 0.43%
% Water Second Cycle [4, 12]: 0.44%
% Water First Cycle [4, 13]: 0.52%
% Water Second Cycle [4, 13]: 0.54%
% Water First Cycle [4, 14]: 0.64%
% Water Second Cycle [4, 14]: 0.65%
% Water First Cycle [4, 15]: 0.78%
% Water Second Cycle [4, 15]: 0.78%
change of mass between a dry and wet state ([4]; water level change between dry and wet state): below 1%
physical stability in aqueous-based formulations [5]: improved physical stability
